Reference: publication PMC3720801, “A Proline-Hinge Alters the Characteristics of the Amphipathic α-helical AMPs” (PLoS ONE, 2013)
Values after ≈ are worked out from the molar mass of the structure shown. Peptide text beside a SMILES is read from it.

Experiments:
[1] = test system: Trichosporon beigelii (KCTC 7707); test: Antifungal MTT assay MIC; assay type: cell-based; details: YPD pH 5.5, 24 h at 28°C, absorbance 570 nm, triplicate
[2] = test system: Bacillus subtilis (KCTC 1918); details: broth microdilution, 1% bactopeptone, 5×10^3 CFU/ml, 10 h at 37°C, OD 620 nm, triplicate
[3] = test system: Staphylococcus epidermidis (KCTC 1917); details: broth microdilution, 1% bactopeptone, 5×10^3 CFU/ml, 10 h at 37°C, OD 620 nm, triplicate
[4] = test system: S. aureus (KCTC 1621); details: broth microdilution, 1% bactopeptone, 5×10^3 CFU/ml, 10 h at 37°C, OD 620 nm, triplicate
[5] = test system: Escherichia coli (KCTC 1682); details: broth microdilution, 1% bactopeptone, 5×10^3 CFU/ml, 10 h at 37°C, OD 620 nm, triplicate
[6] = test system: Proteus vulgaris (KCTC 2433); details: broth microdilution, 1% bactopeptone, 5×10^3 CFU/ml, 10 h at 37°C, OD 620 nm, triplicate
[7] = test system: Salmonella typhimurium (KCTC 1926); details: broth microdilution, 1% bactopeptone, 5×10^3 CFU/ml, 10 h at 37°C, OD 620 nm, triplicate
[8] = test system: Pseudomonas aeruginosa (KCTC 1637); details: broth microdilution, 1% bactopeptone, 5×10^3 CFU/ml, 10 h at 37°C, OD 620 nm, triplicate
[9] = test system: Candida albicans (KCTC 7270); details: MTT assay, YPD pH 5.5, 24 h at 28°C, absorbance 570 nm, triplicate
[10] = test system: Saccharomyces cerevisiae (KCTC 7296); details: MTT assay, YPD pH 5.5, 24 h at 28°C, absorbance 570 nm, triplicate

Q: What does the source list for CC[C@H](C)[C@H](NC(=O)[C@H](CCCCN)NC(=O)[C@H](CO)NC(=O)[C@H](Cc1ccccc1)NC(=O)[C@H](CC(C)C)NC(=O)[C@H](CCCCN)NC(=O)[C@H](CCC(=O)O)NC(=O)[C@H](CC(C)C)NC(=O)[C@H](CCCNC(=N)N)NC(=O)[C@H](CCCCN)NC(=O)[C@H](Cc1ccccc1)NC(=O)[C@@H](NC(=O)[C@H](CCCCN)NC(=O)[C@H](CCCCN)NC(=O)[C@H](C)N)C(C)C)C(=O)N[C@@H](CCC(N)=O)C(=O)N[C@@H](CC(N)=O)C(=O)N[C@@H](Cc1c[nH]c2ccccc12)C(=O)N[C@@H](CCCCN)C(N)=O [Anal 1] (H-AKKVFKRLEKLFSKIQNWK-NH2)?
A: MIC Yeast TB [1]: 6.25 µM (≈ 14.9 µg/mL); MIC G(+) BS [2]: 1.56 µM (≈ 3.73 µg/mL); MIC G(+) SE [3]: 0.78 µM (≈ 1.86 µg/mL); MIC G(+) SA [4]: 3.13 µM (≈ 7.48 µg/mL); MIC G(−) EC [5]: 1.56 µM (≈ 3.73 µg/mL); MIC G(−) PV [6]: 1.56 µM (≈ 3.73 µg/mL); MIC G(−) ST [7]: 0.39 µM (≈ 0.932 µg/mL); MIC G(−) PA [8]: 6.25 µM (≈ 14.9 µg/mL); MIC Yeast CA [9]: 12.5 µM (≈ 29.9 µg/mL); MIC Yeast SC [10]: 12.5 µM (≈ 29.9 µg/mL)

Q: How did the “MIC Yeast TB” value [1] turn out when CC[C@H](C)[C@H](NC(=O)[C@H](CCCCN)NC(=O)[C@H](CO)NC(=O)[C@H](Cc1ccccc1)NC(=O)[C@H](CC(C)C)NC(=O)[C@H](CCCCN)NC(=O)[C@H](CCC(=O)O)NC(=O)[C@H](CC(C)C)NC(=O)[C@H](CCCNC(=N)N)NC(=O)[C@H](CCCCN)NC(=O)[C@H](Cc1ccccc1)NC(=O)[C@@H](NC(=O)[C@H](CCCCN)NC(=O)[C@H](CCCCN)NC(=O)[C@H](C)N)C(C)C)C(=O)N[C@@H](Cc1c[nH]c2ccccc12)C(=O)N[C@@H](CC(N)=O)C(=O)N[C@@H](CC(=O)O)C(=O)N[C@@H](CCCCN)C(N)=O [Anal 2] (H-AKKVFKRLEKLFSKIWNDK-NH2) was run?
A: 6.25 to 12.5 µM

Q: What about the “MIC G(+) BS” value [2] of the same compound?
A: 1.56 µM (≈ 3.71 µg/mL)

Q: And the “MIC G(+) SE” value [3]?
A: 1.56 µM (≈ 3.71 µg/mL)

Q: What about the “MIC G(+) SA” value [4] of the same compound?
A: 3.13 µM (≈ 7.44 µg/mL)

Q: What about the “MIC G(−) EC” value [5] of the same compound?
A: 1.56 µM (≈ 3.71 µg/mL)

Q: And the “MIC G(−) PV” value [6]?
A: 1.56 µM (≈ 3.71 µg/mL)

Q: What about the “MIC G(−) ST” value [7] of the same compound?
A: 0.78 µM (≈ 1.85 µg/mL)

Q: What about the “MIC G(−) PA” value [8] of the same compound?
A: 6.25 µM (≈ 14.9 µg/mL)

Q: And the “MIC Yeast CA” value [9]?
A: 12.5 µM (≈ 29.7 µg/mL)

Q: And the “MIC Yeast SC” value [10]?
A: 12.5 µM (≈ 29.7 µg/mL)

Q: What does the source list for CC[C@H](C)[C@H](NC(=O)[C@H](CCCCN)NC(=O)[C@H](CO)NC(=O)[C@H](Cc1ccccc1)NC(=O)[C@H](CC(C)C)NC(=O)[C@H](CCCCN)NC(=O)[C@H](CCC(=O)O)NC(=O)[C@H](CC(C)C)NC(=O)[C@H](CCCNC(=N)N)NC(=O)[C@H](CCCCN)NC(=O)[C@H](Cc1ccccc1)NC(=O)[C@@H](NC(=O)[C@H](CCCCN)NC(=O)[C@H](CCCCN)NC(=O)[C@H](C)N)C(C)C)C(=O)N[C@@H](Cc1c[nH]c2ccccc12)C(=O)N[C@@H](CC(N)=O)C(=O)N[C@@H](Cc1c[nH]c2ccccc12)C(=O)N[C@@H](CCCCN)C(N)=O [Anal 3] (H-AKKVFKRLEKLFSKIWNWK-NH2)?
A: MIC Yeast TB [1]: 3.13 µM (≈ 7.67 µg/mL); MIC G(+) BS [2]: 0.78 µM (≈ 1.91 µg/mL); MIC G(+) SE [3]: 0.78 µM (≈ 1.91 µg/mL); MIC G(+) SA [4]: 1.56 µM (≈ 3.82 µg/mL); MIC G(−) EC [5]: 0.78 µM (≈ 1.91 µg/mL); MIC G(−) PV [6]: 1.56 µM (≈ 3.82 µg/mL); MIC G(−) ST [7]: 0.39 µM (≈ 0.955 µg/mL); MIC G(−) PA [8]: 3.13 µM (≈ 7.67 µg/mL); MIC Yeast CA [9]: 6.25 µM (≈ 15.3 µg/mL); MIC Yeast SC [10]: 3.13 to 6.25 µM
